Reference: patent US12662491B2 (Redona Therapeutics, Inc., priority 2020, dated 2026)
Where two headings read alike, the source gives them in different places.

Biological target: T1, Zcchc11 enzyme (Homo sapiens, UniProt Q5TAX3)
T1 construct: made in house; host or cells: HEK293 cells (Zcchc11); E. coli Rosetta II (LIN28A)
T1 sequence (Q5TAX3 212-1420): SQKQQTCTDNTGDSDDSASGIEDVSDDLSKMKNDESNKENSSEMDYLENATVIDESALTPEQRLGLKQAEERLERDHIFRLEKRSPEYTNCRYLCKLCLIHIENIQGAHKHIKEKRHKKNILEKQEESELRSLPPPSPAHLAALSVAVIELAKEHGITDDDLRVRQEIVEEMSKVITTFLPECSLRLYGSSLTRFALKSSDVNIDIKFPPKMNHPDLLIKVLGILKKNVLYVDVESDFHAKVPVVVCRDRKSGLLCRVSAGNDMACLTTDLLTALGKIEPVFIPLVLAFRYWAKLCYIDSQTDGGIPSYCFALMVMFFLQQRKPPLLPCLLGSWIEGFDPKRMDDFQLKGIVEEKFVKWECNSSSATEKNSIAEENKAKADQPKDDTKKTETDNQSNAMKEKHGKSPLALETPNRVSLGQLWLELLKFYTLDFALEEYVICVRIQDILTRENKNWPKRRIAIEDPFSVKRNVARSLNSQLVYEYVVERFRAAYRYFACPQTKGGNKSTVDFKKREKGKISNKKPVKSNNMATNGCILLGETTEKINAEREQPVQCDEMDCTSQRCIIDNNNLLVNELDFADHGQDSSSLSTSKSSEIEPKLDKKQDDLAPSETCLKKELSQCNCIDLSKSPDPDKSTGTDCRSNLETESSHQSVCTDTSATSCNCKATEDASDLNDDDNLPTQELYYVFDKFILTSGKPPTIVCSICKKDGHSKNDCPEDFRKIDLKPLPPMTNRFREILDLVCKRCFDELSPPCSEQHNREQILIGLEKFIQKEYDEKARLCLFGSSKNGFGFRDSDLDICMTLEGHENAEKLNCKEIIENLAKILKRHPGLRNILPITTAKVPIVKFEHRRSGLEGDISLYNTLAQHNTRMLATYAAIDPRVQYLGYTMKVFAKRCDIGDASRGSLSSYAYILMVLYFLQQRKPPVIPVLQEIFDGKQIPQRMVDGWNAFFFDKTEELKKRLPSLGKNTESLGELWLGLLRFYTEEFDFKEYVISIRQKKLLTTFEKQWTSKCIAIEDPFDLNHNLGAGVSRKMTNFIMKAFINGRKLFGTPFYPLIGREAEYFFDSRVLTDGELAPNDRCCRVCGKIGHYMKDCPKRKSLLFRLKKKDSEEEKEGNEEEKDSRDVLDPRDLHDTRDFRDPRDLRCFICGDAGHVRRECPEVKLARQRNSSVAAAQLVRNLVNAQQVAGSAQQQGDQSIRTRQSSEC
Test: TUTase assay (Zcchc11 assay, Lin28a-dependent polyuridylation of pre-let-7)
Type: biochemical
Settings: read-out: Potency Lin28a-dep Z11 IC50
Method in brief: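 Potency is measured as inhibition of LIN28A-driven U-tail addition to 2 nM pre-let-7 by 0.2 nM HEK293-derived Zcchc11 fragment with 5 uM UTP at room temperature. Tail growth appears as fluorescein quenching by an annealing rhodamine-A20 probe.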

[1] = Lin28a-dependent Zcchc11 (Z11) TUTase assay
[2] = Lin28a-dependent Zcchc11 (Z11) TUTase activity
[3] = LIN28A 10 nM, Zcchc11 0.2 nM, 5′-fluorescein pre-let-7 miRNA 2 nM, UTP 5 uM, room temperature, 30 minutes pre-incubation

Structure (SMILES) | IC50 [1] [nM] | also measured
O=C(O)c1cn(-c2ccccc2)c2c(F)c(N3CCC[C@H]3COc3ccccn3)c(F)cc2c1=O [a, (S)-6,8-difluoro-4-oxo-1-phenyl-7-(2-((pyridin-2-yloxy)methyl)pyrrolidin-1-yl)-1,4-dihydro-quinoline-3-carboxylic acid] |  | IC50 [2]: 10000 to 50000 nM
O=C(O)c1cn(C2COC2)c2cc(N3CCC[C@@H]3COc3ccccn3)c(F)cc2c1=O [Example 451, (R)-6-fluoro-1-(oxetan-3-yl)-4-oxo-7-(2-((pyridin-2-yloxy)methyl)pyrrolidin-1-yl)-1,4-dihydroquinoline-3-carboxylic acid] | 1000 to 10000 | 
CN(C)C1CN(c2ccc(-n3cc(C(=O)O)c(=O)c4cc(Cl)c(N5CC(OC6CC6)C[C@@H]5COc5ncccc5Cl)cc43)cn2)C1 (stereo partly drawn) [Compound 275, 6-chloro-7-((2R)-2-(((3-chloropyridin-2-yl)oxy)methyl)-4-cycloprop-oxypyrrolidin-1-yl)-1-(6-(3-(dimethyl-amino)azetidin-1-yl)pyridin-3-yl)-4-oxo-1,4-dihydro-quinoline-3-carboxylic acid] |  | IC50 [2]: ≤ 1000 nM
Cc1cccc(F)c1-n1cc(C(=O)O)c(=O)c2cc(F)c(N3CCC[C@@H]3COc3ccccn3)cc21 [Compound 154, (R)-6-fluoro-1-(2-fluoro-6-methylphenyl)-4-oxo-7-(2-((pyridin-2-yloxy)methyl)pyrrolidin-1-yl)-1,4-dihydro-quinoline-3-carboxylic acid] |  | IC50 [2]: 1000 to 10000 nM
O=C(O)c1cn(Cc2cn[nH]c2)c2cc(N3CCC[C@@H]3COc3ncccc3Cl)c(Cl)cc2c1=O [Example 581, (R)-1-((1H-pyrazol-4-yl)methyl)-6-chloro-7-(2-(((3-chloropyridin-2-yl)oxy)methyl)pyrrolidin-1-yl)-4-oxo-1,4-dihydroquinoline-3-carboxylic acid] | 1000 to 10000 | 
CN(C)C1CN(c2ccc(-n3cc(C(=O)O)c(=O)c4cc(Cl)c(N5CC(F)(F)C[C@@H]5COc5ncccc5Cl)nc43)cn2)C1 [Example 60, 6-chloro-7-[(2R)-2-[[(3-chloropyridin-2-yl)oxy]methyl]-4,4-difluoropyrrolidin-1-yl]-1-[6-[3-(dimethylamino)azetidin-1-yl]pyridin-3-yl]-4-oxo-1,8-naphthyridine-3-carboxylic acid] |  | IC50 [3]: ≤ 1000 nM
O=C(O)c1cn(-c2cnccn2)c2cc(N3CCC[C@@H]3COc3ncccc3F)c(F)cc2c1=O (racemic) [Compound 174, rac-(R)-6-fluoro-7-(2-(((3-fluoropyridin-2-yl)oxy)methyl)pyrrolidin-1-yl)-4-oxo-1-(pyrazin-2-yl)-1,4-dihydro-quinoline-3-carboxylic acid] |  | IC50 [2]: ≤ 1000 nM
O=C(O)c1cn(-c2ccc(O)cc2)c2cc(N3CCC[C@@H]3COc3cc4[nH]ccc4cn3)c(F)cc2c1=O [Example 12, (R)-7-(2-(((1H-pyrrolo[3,2-c]pyridine-6-yl)oxy)methyl)pyrrolidin-1-yl)-6-fluoro-1-(4-hydroxyphenyl)-4-oxo-1,4-dihydroquinoline-3-carboxylic acid] |  | IC50 [3]: ≤ 1000 nM
CN(C)C1CN(c2ccc(-n3cc(C(=O)O)c(=O)c4cc(Cl)c(N5CCC[C@@H]5COc5nc6c(ccn6C)cc5Cl)cc43)cn2)C1 [Example 645, (R)-6-chloro-7-(2-(((5-chloro-1-methyl-1H-pyrrolo[2,3-b]pyridin-6-yl)oxy)methyl)pyrrolidin-1-yl)-1-(6-(3-(dimethylamino)azetidin-1-yl)pyridin-3-yl)-4-oxo-1,4-dihydroquinoline-3-carboxylic acid] | ≤ 1000 | 

Continued, in another order:

IC50 [1] [nM] | Structure (SMILES) | also measured
≤ 1000 | COCCOc1ccc(-n2cc(C(=O)O)c(=O)c3cc(F)c(N4CCC[C@@H]4COc4ccccn4)cc32)cc1 [Example 406, (R)-6-fluoro-1-(4-(2-methoxyethoxy)phenyl)-4-oxo-7-(2-((pyridin-2-yloxy)methyl)pyrrolidin-1-yl)-1,4-dihydroquinoline-3-carboxylic acid] | 
≤ 1000 | O=C(O)c1cn(-c2ccc3c(c2)CCOC3)c2cc(N3CCC[C@@H]3COc3ncccc3Cl)c(Cl)cc2c1=O [Example 445, (R)-6-chloro-7-(2-(((3-chloropyridin-2-yl)oxy)methyl)pyrrolidin-1-yl)-1-(isochroman-6-yl)-4-oxo-1,4-dihydroquinoline-3-224 carboxylic acid] | 
≤ 1000 | O=C(O)c1cn(-c2ccc(N3CCCC3)nc2)c2cc(N3CCC[C@@H]3COc3ncccc3Cl)c(Cl)cc2c1=O [Example 432, (R)-6-chloro-7-(2-(((3-chloropyridin-2-yl)oxy)methyl)pyrrolidin-1-yl)-4-oxo-1-(6-(pyrrolidin-1-yl)pyridin-3-yl)-1,4-dihydroquinoline-3-carboxylic acid] | 
≤ 1000 | O=C(O)c1cn(-c2ccc(N3CCOCC3)nc2)c2cc(N3CCC[C@@H]3COc3ncccc3Cl)c(Cl)cc2c1=O [Example 431, (R)-6-chloro-7-(2-(((3-chloropyridin-2-yl)oxy)methyl)pyrrolidin-1-yl)-1-(6-morpholino-pyridin-3-yl)-4-oxo-1,4-dihydroquinoline-3-carboxylic acid] | 
≤ 1000 | Cc1cccnc1OC[C@H]1CCCN1c1cc2c(cc1Cl)c(=O)c(C(=O)O)cn2C1(C)CCCC1 [Example 457, (R)-6-chloro-1-(1-methylcyclo-pentyl)-7-(2-(((3-methylpyridin-2-yl)oxy)methyl)pyrrolidin-1-yl)-4-oxo-1,4-dihydroquinoline-3-carboxylic acid] | 
≤ 1000 | COCCN(C)c1ccc(-n2cc(C(=O)O)c(=O)c3cc(Cl)c(N4CCC[C@@H]4COc4ncccc4Cl)cc32)cn1 [Example 420, (R)-6-chloro-7-(2-(((3-chloropyridin-2-yl)oxy)methyl)pyrrolidin-1-yl)-1-(6-((2-methoxy-ethyl)(methyl)amino)pyridin-3-yl)-4-oxo-1,4-dihydroquinoline-3-carboxylic acid] | 
≤ 1000 | COc1ccnc(OC[C@H]2C[C@H]3C[C@H]3N2c2cc3c(cc2Cl)c(=O)c(C(=O)O)cn3-c2ccc(N3CC(N(C)C)C3)nc2)c1Cl [Example 674, 6-chloro-7-((1R,3R,5R)-3-(((3-chloro-4-methoxypyridin-2-yl)oxy)methyl)-2-azabicyclo[3.1.0]hexan-2-yl)-1-(6-(3-(dimethylamino)azetidin-1-yl)pyridin-3-yl)-4-oxo-1,4-dihydroquinoline-3-carboxylic acid] | 
≤ 1000 | O=C(O)c1cn(-c2ccc(N3CCNCC3)nc2)c2cc(N3CCC[C@@H]3COc3ncccc3Cl)c(Cl)cc2c1=O [Example 478, (R)-6-chloro-7-(2-(((3-chloropyridin-2-yl)oxy)methyl)pyrrolidin-1-yl)-4-oxo-1-(6-(piperazin-1-yl)pyridin-3-yl)-1,4-dihydroquinoline-3-carboxylic acid] | 
≤ 1000 | CN(C)C1CN(c2ccc(-n3cc(C(=O)O)c(=O)c4cc(Cl)c(N5CC(c6cccnc6)C[C@@H]5COc5ncccc5Cl)cc43)cn2)C1 (stereo partly drawn) [Example 599, 6-chloro-7-((2R)-2-(((3-chloropyridin-2-yl)oxy)methyl)-4-(pyridin-3-yl)pyrrolidin-1-yl)-1-(6-(3-(dimethylamino)azetidin-1-yl)pyridin-3-yl)-4-oxo-1,4-dihydroquinoline-3-carboxylic acid] | 
≤ 1000 | O=C(O)c1cn(-c2ccnc(O)c2)c2cc(N3CCC[C@@H]3COc3ncccc3Cl)c(Cl)cc2c1=O [Example 428, (R)-6-chloro-7-(2-(((3-chloropyridin-2-yl)oxy)methyl)pyrrolidin-1-yl)-1-(2-hydroxypyridin-4-yl)-4-oxo-1,4-dihydroquinoline-3-carboxylic acid] | 
≤ 1000 | COc1ccc(Cl)c(OC[C@H]2CC(C)(C)CN2c2cc3c(cc2Cl)c(=O)c(C(=O)O)cn3-c2ccc(N)nc2)n1 [Example 649, (R)-1-(6-aminopyridin-3-yl)-6-chloro-7-(2-(((3-chloro-6-methoxypyridin-2-yl)oxy)methyl)-4,4-dimethylpyrrolidin-1-yl)-4-oxo-1,4-dihydroquinoline-3-carboxylic acid] | 
